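In this assay, cells in 96-well plates receive the compound at five concentrations for 48 hours. Endpoints are linearly interpolated between the surrounding concentrations. Abbreviation: GI50, concentration required for 50% inhibition of growth.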 Activity calls are given as the source filed them. No stated cut-off is given here; in the data, active = GI50 up to about 1.1 µM and inactive = higher.
Legend:
Test in all cases: NCI anticancer screen, dose series, 48 h
UACC-257 = system: UACC-257
NCI-H23 = system: NCI-H23
COLO 205 = system: COLO 205
786-0 = system: 786-0
SF-539 = system: SF-539
MDA-MB-231 = system: MDA-MB-231
NCI-H460 = system: NCI-H460
SK-MEL-2 = system: SK-MEL-2
PC-3 = system: PC-3
BT-549 = system: BT-549
SNB-19 = system: SNB-19
Malme-3M = system: Malme-3M
SW-620 = system: SW-620
DU-145 = system: DU-145
MDA-MB-435 = system: MDA-MB-435
M14 = system: M14
SK-MEL-28 = system: SK-MEL-28
RXF 393 = system: RXF 393
SF-268 = system: SF-268
TK-10 = system: TK-10
SNB-75 = system: SNB-75
KM12 = system: KM12
U-251 = system: U-251
SN12C = system: SN12C
A549 = system: A549
Hs-578T = system: Hs-578T
UACC-62 = system: UACC-62
OVCAR-8 = system: OVCAR-8
NCI-H522 = system: NCI-H522
HOP-62 = system: HOP-62
SF-295 = system: SF-295
IGROV-1 = system: IGROV-1
A498 = system: A498
ACHN = system: ACHN
NCI-H226 = system: NCI-H226
UO-31 = system: UO-31
EKVX = system: EKVX
OVCAR-5 = system: OVCAR-5
T47D = system: T47D
SK-MEL-5 = system: SK-MEL-5
MDA-N = system: MDA-N
HOP-92 = system: HOP-92
HCT-116 = system: HCT-116
K562 = system: K562
HCT-15 = system: HCT-15
SK-OV-3 = system: SK-OV-3
HT-29 = system: HT-29
NCI/ADR-RES = system: NCI/ADR-RES
HCC 2998 = system: HCC 2998
CAKI-1 = system: CAKI-1
MOLT-4 = system: MOLT-4
LOX IMVI = system: LOX IMVI
MCF7 = system: MCF7
SR = system: SR
OVCAR-4 = system: OVCAR-4
RPMI-8226 = system: RPMI-8226
OVCAR-3 = system: OVCAR-3
CCRF-CEM = system: CCRF-CEM

Measured: GI50

OCC1OC(N2CCN(C3OC(CO)C(O)C(O)C3O)CC2)C(O)C(O)C1O (stereo not drawn)
> 100 µM: HCT-15
inactive: UACC-257 > 100 µM | NCI-H23 > 100 µM | COLO 205 > 100 µM | 786-0 > 100 µM | SF-539 > 100 µM | MDA-MB-231 > 100 µM | NCI-H460 > 100 µM | SK-MEL-2 > 100 µM | PC-3 > 100 µM | BT-549 > 100 µM | SNB-19 > 100 µM | Malme-3M > 100 µM | SW-620 > 100 µM | DU-145 > 100 µM | MDA-MB-435 > 100 µM | M14 > 100 µM | SK-MEL-28 > 100 µM | RXF 393 > 100 µM | SF-268 > 100 µM | TK-10 > 100 µM | SNB-75 > 100 µM | KM12 > 100 µM | U-251 > 100 µM | SN12C > 100 µM | A549 > 100 µM | Hs-578T > 100 µM | UACC-62 > 100 µM | OVCAR-8 > 100 µM | NCI-H522 > 100 µM | HOP-62 > 100 µM | SF-295 > 100 µM | IGROV-1 > 100 µM | A498 > 100 µM | ACHN > 100 µM | NCI-H226 > 100 µM | UO-31 > 100 µM | EKVX > 100 µM | OVCAR-5 > 100 µM | T47D > 100 µM | SK-MEL-5 > 100 µM | MDA-N > 100 µM | HOP-92 > 100 µM | HCT-116 > 100 µM | K562 > 100 µM | SK-OV-3 > 100 µM | HT-29 > 100 µM | NCI/ADR-RES > 100 µM | HCC 2998 > 100 µM | CAKI-1 > 100 µM | MOLT-4 > 100 µM | LOX IMVI > 100 µM | MCF7 > 100 µM | SR > 100 µM | OVCAR-4 > 100 µM | RPMI-8226 > 100 µM | OVCAR-3 > 100 µM

CCOc1ccc(/C=N/[N+](C)(C)C)cc1OCC
> 10 µM: HCT-15
inactive: UACC-257 > 10 µM | NCI-H23 > 10 µM | COLO 205 > 10 µM | 786-0 > 10 µM | SF-539 > 10 µM | MDA-MB-231 > 10 µM | PC-3 > 10 µM | BT-549 > 10 µM | SNB-19 > 10 µM | Malme-3M > 10 µM | SW-620 > 10 µM | DU-145 > 10 µM | MDA-MB-435 > 10 µM | M14 > 10 µM | SK-MEL-28 > 10 µM | SF-268 > 10 µM | TK-10 > 10 µM | SNB-75 > 10 µM | KM12 > 10 µM | U-251 > 10 µM | SN12C > 10 µM | A549 > 10 µM | Hs-578T > 10 µM | UACC-62 > 10 µM | OVCAR-8 > 10 µM | NCI-H522 > 10 µM | HOP-62 > 10 µM | SF-295 > 10 µM | IGROV-1 > 10 µM | ACHN > 10 µM | CCRF-CEM > 10 µM | OVCAR-5 > 10 µM | T47D > 10 µM | SK-MEL-5 > 10 µM | MDA-N > 10 µM | HOP-92 > 10 µM | HCT-116 > 10 µM | K562 > 10 µM | SK-OV-3 > 10 µM | HT-29 > 10 µM | NCI/ADR-RES > 10 µM | HCC 2998 > 10 µM | CAKI-1 > 10 µM | MOLT-4 > 10 µM | LOX IMVI > 10 µM | MCF7 > 10 µM | SR > 10 µM | OVCAR-4 > 10 µM | RPMI-8226 > 10 µM | OVCAR-3 > 10 µM

Reference: ChEMBL document CHEMBL1201862, “PubChem BioAssay data set” (2004)
